Experiments:
wheat = test: Test B pre/postemergence wheat; assay type: in vivo, Triticum aestivum
How it was run: (§1)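 Herbicidal effect was estimated by eye on a ten-point control scale after plants spent twelve to sixteen days in a greenhouse following soil or foliar treatment. Foliar sprays targeted plants at one to four leaves; all doses were formulated in a non-phytotoxic solvent with surfactant.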

sugar beet = test: Test B pre/postemergence sugar beet; assay type: in vivo, Beta vulgaris
How it was run: as §1

corn = test: Test B pre/postemergence corn; assay type: in vivo, Zea mays
How it was run: as §1

blackgrass = test: Test B pre/postemergence blackgrass; assay type: in vivo, Alopecurus myosuroides
How it was run: as §1

morningglory = test: Test B pre/postemergence morningglory; assay type: in vivo, Ipomoea hederacea
How it was run: as §1

wild oat = test: Test B pre/postemergence wild oat; assay type: in vivo, Avena fatua
How it was run: as §1

crabgrass = test: Test B pre/postemergence crabgrass; assay type: in vivo, Digitaria sanguinalis
How it was run: as §1

purple nutsedge = test: Test B pre/postemergence purple nutsedge; assay type: in vivo, Cyperus rotundus
How it was run: as §1

surinam grass = test: Test B pre/postemergence surinam grass; assay type: in vivo, Brachiaria decumbens
How it was run: as §1

giant foxtail = test: Test B pre/postemergence giant foxtail; assay type: in vivo, Setaria faberii
How it was run: as §1

cocklebur = test: Test B pre/postemergence cocklebur; assay type: in vivo, Xanthium strumarium
How it was run: as §1

velvetleaf = test: Test B pre/postemergence velvetleaf; assay type: in vivo, Abutilon theophrasti
How it was run: as §1

rape = test: Test B pre/postemergence rape; assay type: in vivo, Brassica napus
How it was run: as §1

bedstraw = test: Test B pre/postemergence bedstraw; assay type: in vivo, Galium aparine; conditions: Preemergence
How it was run: as §1

pigweed = test: Test B pre/postemergence pigweed; assay type: in vivo, Amaranthus retroflexus
How it was run: as §1

soybean = test: Test B pre/postemergence soybean; assay type: in vivo, Glycine max
How it was run: as §1

[1] = Postemergence, Rate 62 g/ha, scale 0 to 10, 0 is no effect, 10 is complete control
[2] = Postemergence, Rate 125 g/ha, scale of 0 to 10 where 0 is no effect and 10 is complete control
[3] = Preemergence, Rate 125 g/ha, scale of 0 to 10 where 0 is no effect and 10 is complete control
[4] = Preemergence, Rate 250 g/ha, scale 0 (no effect) to 10 (complete control)
[5] = Rate 62 g/ha, Preemergence, scale 0 to 10
[6] = Rate 250 g/ha, Postemergence, scale 0 to 10, 0 is no effect, 10 is complete control
[7] = Rate 500 g/ha, Postemergence, scale 0 to 10, 0 is no effect, 10 is complete control
[8] = Rate 500 g/ha, Preemergence, scale 0 to 10 (0 no effect, 10 complete control)

C#CCCn1c(=O)on(C(=O)N(c2ccc(F)cc2F)C(C)C)c1=O [Compound 744]
5: Wheat plant response rating (wheat; [6]) | Wheat plant response rating (wheat; [8]) | Sugarbeets plant response rating (sugar beet; [7]) | Corn plant response rating (corn; [4]) | Corn plant response rating (corn; [7]) | Plant response rating, Blackgrass (blackgrass; [1]) | Blackgrass plant response rating (blackgrass; [2]) | Blackgrass plant response rating (blackgrass; [6]) | Blackgrass plant response rating (blackgrass; [7]) | Nutsedge plant response rating (purple nutsedge; [4]) | B. signalgrass plant response rating (surinam grass; Preemergence, Rate 62 g/ha, scale of 0 to 10 where 0 is no effect and 10 is complete control) | B. signalgrass plant response rating (surinam grass; [6]) | Soybean plant response rating (soybean; [7])
4: Morningglory plant response rating (morningglory; [7]) | Crabgrass plant response rating (crabgrass; [2]) | Rape plant response rating (rape; [5]) | Redroot pigweed plant response rating (pigweed; [5]) | Soybean plant response rating (soybean; [6])
6: Blackgrass plant response rating (blackgrass; [5]) | Nutsedge plant response rating (purple nutsedge; [7]) | B. signalgrass plant response rating (surinam grass; [7]) | Plant response rating, Giant foxtail (giant foxtail; [1]) | Plant response rating, Rape (rape; [3]) | Rape plant response rating (rape; [4])
7: Wheat plant response rating (wheat; [7]) | Sugarbeets plant response rating (sugar beet; [4]) | Sugarbeets plant response rating (sugar beet; [8]) | Corn plant response rating (corn; [8]) | Nutsedge plant response rating (purple nutsedge; [8])
10: Crabgrass plant response rating (crabgrass; [8]) | Giant foxtail plant response rating (giant foxtail; [8])
8: Plant response rating, Wild oats (wild oat; [3]) | Crabgrass plant response rating (crabgrass; [6]) | Plant response rating, B. signalgrass (surinam grass; [3]) | Giant foxtail plant response rating (giant foxtail; [2]) | Giant foxtail plant response rating (giant foxtail; [6]) | Giant foxtail plant response rating (giant foxtail; [7]) | Rape plant response rating (rape; [7]) | Bedstraw plant response rating (bedstraw; Rate 500 g/ha, scale 0 to 10 (0 no effect, 10 complete control)) | Plant response rating, Redroot pigweed (pigweed; [3]) | Redroot pigweed plant response rating (pigweed; [7])
2: Plant response rating, Sugarbeets (sugar beet; [3]) | Plant response rating, Morningglory (morningglory; [1]) | Morningglory plant response rating (morningglory; [2]) | Morningglory plant response rating (morningglory; [6]) | Wild oats plant response rating (wild oat; [7]) | B. signalgrass plant response rating (surinam grass; [2]) | Velvetleaf plant response rating (velvetleaf; [7]) | Velvetleaf plant response rating (velvetleaf; [8]) | Rape plant response rating (rape; [2]) | Plant response rating, Soybean (soybean; [1])
9: Plant response rating, Blackgrass (blackgrass; [3]) | Blackgrass plant response rating (blackgrass; [4]) | Blackgrass plant response rating (blackgrass; [8]) | Wild oats plant response rating (wild oat; [4]) | Wild oats plant response rating (wild oat; [8]) | Plant response rating, Crabgrass (crabgrass; [3]) | Crabgrass plant response rating (crabgrass; [4]) | Crabgrass plant response rating (crabgrass; [5]) | Crabgrass plant response rating (crabgrass; [7]) | B. signalgrass plant response rating (surinam grass; [4]) | B. signalgrass plant response rating (surinam grass; [8]) | Plant response rating, Giant foxtail (giant foxtail; [3]) | Giant foxtail plant response rating (giant foxtail; [4]) | Giant foxtail plant response rating (giant foxtail; [5]) | Rape plant response rating (rape; [8]) | Redroot pigweed plant response rating (pigweed; [4]) | Redroot pigweed plant response rating (pigweed; [8])
0: Plant response rating, Wheat (wheat; [1]) | Wheat plant response rating (wheat; [2]) | Plant response rating, Wheat (wheat; [3]) | Wheat plant response rating (wheat; [5]) | Plant response rating, Sugarbeets (sugar beet; [1]) | Sugarbeets plant response rating (sugar beet; [2]) | Sugarbeets plant response rating (sugar beet; [5]) | Sugarbeets plant response rating (sugar beet; [6]) | Plant response rating, Corn (corn; [1]) | Corn plant response rating (corn; [2]) | Plant response rating, Corn (corn; [3]) | Corn plant response rating (corn; [5]) | Plant response rating, Morningglory (morningglory; [3]) | Morningglory plant response rating (morningglory; [4]) | Morningglory plant response rating (morningglory; [5]) | Morningglory plant response rating (morningglory; [8]) | Plant response rating, Wild oats (wild oat; [1]) | Wild oats plant response rating (wild oat; [2]) | Wild oats plant response rating (wild oat; [6]) | Plant response rating, Nutsedge (purple nutsedge; [1]) | Plant response rating, Nutsedge (purple nutsedge; [3]) | Plant response rating, B. signalgrass (surinam grass; [1]) | Plant response rating, Cocklebur (cocklebur; [1]) | Cocklebur plant response rating (cocklebur; [2]) | Plant response rating, Cocklebur (cocklebur; [3]) | Cocklebur plant response rating (cocklebur; [4]) | Cocklebur plant response rating (cocklebur; [5]) | Cocklebur plant response rating (cocklebur; [6]) | Cocklebur plant response rating (cocklebur; [7]) | Cocklebur plant response rating (cocklebur; [8]) | Plant response rating, Velvetleaf (velvetleaf; [1]) | Velvetleaf plant response rating (velvetleaf; [2]) | Plant response rating, Velvetleaf (velvetleaf; [3]) | Velvetleaf plant response rating (velvetleaf; [4]) | Velvetleaf plant response rating (velvetleaf; [5]) | Velvetleaf plant response rating (velvetleaf; [6]) | Plant response rating, Rape (rape; [1]) | Plant response rating, Bedstraw (bedstraw; Rate 125 g/ha, scale of 0 to 10 where 0 is no effect and 10 is complete control) | Bedstraw plant response rating (bedstraw; Rate 250 g/ha, scale 0 (no effect) to 10 (complete control)) | Bedstraw plant response rating (bedstraw; Rate 62 g/ha, scale 0 to 10) | Plant response rating, Redroot pigweed (pigweed; [1]) | Redroot pigweed plant response rating (pigweed; [2]) | Redroot pigweed plant response rating (pigweed; [6]) | Plant response rating, Soybean (soybean; [3]) | Soybean plant response rating (soybean; [4]) | Soybean plant response rating (soybean; [5]) | Soybean plant response rating (soybean; [8])
3: Wheat plant response rating (wheat; [4]) | Corn plant response rating (corn; [6]) | Wild oats plant response rating (wild oat; [5]) | Plant response rating, Crabgrass (crabgrass; [1]) | Nutsedge plant response rating (purple nutsedge; [6]) | Rape plant response rating (rape; [6]) | Soybean plant response rating (soybean; [2])

From patent US6737383B1, “Herbicidal oxadiazolidines” (priority 1999, dated 2004)
